Assay results: US10947202B2, “Sodium ion channel inhibitors and pharmaceutically acceptable salts and polymorphs thereof and uses thereof” (SHANGHAI HAIYAN PHARMACEUTICAL TECHNOLOGY CO., LTD., priority 2017, dated 2021)
Read-outs that look alike come from different tables or passages of the source.

Tests used:
Solubility experiment = type: physicochemical; conditions: listed as free base sample
Description: The solubility of crystal forms A, D, E-1, E-3, F and free base sample in buffer of 0.1M HCl, pH 4.5, pH 6.8 and water was tested at room temperature. In the test, the standard curves of free base sample and five crystal forms were plotted. Subsequently, 6 mg of API and five crystal form samples were weighed, respectively, and 2 ml of the solvent was added, the mixture was shaken at room temperature for 4 h, then ultrasonicated for 30 min, centrifuged, and the supernatant was taken out, filtered through a 0.45 μm filter and injected, and the solubility was measured, the results are shown in Table 28 (concentration is in mg/ml).

Nav1.8 = Nav1.8 (Homo sapiens, UniProt Q9Y5Y9); experiment: Selectivity for other ion channels: Nav1.8; type: cell-based
Sequence of Nav1.8 (Q9Y5Y9 whole entry): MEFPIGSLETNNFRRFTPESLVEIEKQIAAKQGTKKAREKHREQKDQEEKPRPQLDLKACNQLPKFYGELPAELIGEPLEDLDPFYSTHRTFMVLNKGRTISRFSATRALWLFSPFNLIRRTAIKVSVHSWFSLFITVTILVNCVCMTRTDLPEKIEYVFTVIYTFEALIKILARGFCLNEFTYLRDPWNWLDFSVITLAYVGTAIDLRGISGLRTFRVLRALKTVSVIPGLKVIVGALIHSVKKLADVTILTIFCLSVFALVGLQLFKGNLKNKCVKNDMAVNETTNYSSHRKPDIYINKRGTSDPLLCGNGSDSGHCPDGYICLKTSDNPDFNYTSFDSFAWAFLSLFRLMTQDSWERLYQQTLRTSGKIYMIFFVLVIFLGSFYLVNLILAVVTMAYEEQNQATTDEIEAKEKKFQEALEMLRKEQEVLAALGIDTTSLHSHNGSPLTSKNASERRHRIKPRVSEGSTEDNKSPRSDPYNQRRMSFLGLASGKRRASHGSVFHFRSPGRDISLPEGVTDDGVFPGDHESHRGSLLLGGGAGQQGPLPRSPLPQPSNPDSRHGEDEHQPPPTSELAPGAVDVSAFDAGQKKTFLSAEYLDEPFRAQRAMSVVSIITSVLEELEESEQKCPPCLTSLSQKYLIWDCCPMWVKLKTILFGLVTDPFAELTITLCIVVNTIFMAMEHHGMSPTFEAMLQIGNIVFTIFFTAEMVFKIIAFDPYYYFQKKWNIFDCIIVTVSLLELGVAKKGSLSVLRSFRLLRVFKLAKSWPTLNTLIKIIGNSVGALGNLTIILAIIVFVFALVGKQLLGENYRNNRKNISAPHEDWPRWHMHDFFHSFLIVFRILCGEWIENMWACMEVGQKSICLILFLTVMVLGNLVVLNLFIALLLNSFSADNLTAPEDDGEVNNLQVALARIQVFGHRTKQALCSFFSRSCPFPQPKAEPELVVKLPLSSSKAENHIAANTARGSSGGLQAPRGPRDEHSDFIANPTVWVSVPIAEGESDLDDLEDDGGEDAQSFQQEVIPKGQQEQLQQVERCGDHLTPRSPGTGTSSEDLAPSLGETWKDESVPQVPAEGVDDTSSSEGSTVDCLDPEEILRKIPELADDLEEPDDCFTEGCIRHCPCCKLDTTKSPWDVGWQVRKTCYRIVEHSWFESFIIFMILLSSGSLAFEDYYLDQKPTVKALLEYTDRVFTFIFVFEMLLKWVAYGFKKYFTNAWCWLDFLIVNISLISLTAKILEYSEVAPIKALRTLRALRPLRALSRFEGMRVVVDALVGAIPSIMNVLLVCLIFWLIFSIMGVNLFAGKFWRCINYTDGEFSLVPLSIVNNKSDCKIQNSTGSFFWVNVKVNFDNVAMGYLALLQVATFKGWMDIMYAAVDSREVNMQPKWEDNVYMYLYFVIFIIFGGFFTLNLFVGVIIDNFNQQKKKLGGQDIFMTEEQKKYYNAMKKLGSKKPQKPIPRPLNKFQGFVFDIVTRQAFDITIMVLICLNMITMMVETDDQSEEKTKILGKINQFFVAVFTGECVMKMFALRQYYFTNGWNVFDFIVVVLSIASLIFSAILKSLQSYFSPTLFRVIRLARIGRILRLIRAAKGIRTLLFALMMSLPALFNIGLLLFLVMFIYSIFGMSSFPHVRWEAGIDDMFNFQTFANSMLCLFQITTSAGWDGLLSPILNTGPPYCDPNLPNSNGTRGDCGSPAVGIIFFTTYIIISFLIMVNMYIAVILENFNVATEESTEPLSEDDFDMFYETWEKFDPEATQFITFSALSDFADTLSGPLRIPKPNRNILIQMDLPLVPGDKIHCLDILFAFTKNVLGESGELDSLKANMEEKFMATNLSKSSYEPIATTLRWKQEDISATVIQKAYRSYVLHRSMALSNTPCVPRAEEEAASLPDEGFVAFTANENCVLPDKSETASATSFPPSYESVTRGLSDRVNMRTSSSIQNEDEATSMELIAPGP

Nav1.2 = Nav1.2 (Homo sapiens, UniProt Q99250); experiment: Selectivity for other ion channels: Nav1.2; type: cell-based
Sequence of Nav1.2 (Q99250 whole entry): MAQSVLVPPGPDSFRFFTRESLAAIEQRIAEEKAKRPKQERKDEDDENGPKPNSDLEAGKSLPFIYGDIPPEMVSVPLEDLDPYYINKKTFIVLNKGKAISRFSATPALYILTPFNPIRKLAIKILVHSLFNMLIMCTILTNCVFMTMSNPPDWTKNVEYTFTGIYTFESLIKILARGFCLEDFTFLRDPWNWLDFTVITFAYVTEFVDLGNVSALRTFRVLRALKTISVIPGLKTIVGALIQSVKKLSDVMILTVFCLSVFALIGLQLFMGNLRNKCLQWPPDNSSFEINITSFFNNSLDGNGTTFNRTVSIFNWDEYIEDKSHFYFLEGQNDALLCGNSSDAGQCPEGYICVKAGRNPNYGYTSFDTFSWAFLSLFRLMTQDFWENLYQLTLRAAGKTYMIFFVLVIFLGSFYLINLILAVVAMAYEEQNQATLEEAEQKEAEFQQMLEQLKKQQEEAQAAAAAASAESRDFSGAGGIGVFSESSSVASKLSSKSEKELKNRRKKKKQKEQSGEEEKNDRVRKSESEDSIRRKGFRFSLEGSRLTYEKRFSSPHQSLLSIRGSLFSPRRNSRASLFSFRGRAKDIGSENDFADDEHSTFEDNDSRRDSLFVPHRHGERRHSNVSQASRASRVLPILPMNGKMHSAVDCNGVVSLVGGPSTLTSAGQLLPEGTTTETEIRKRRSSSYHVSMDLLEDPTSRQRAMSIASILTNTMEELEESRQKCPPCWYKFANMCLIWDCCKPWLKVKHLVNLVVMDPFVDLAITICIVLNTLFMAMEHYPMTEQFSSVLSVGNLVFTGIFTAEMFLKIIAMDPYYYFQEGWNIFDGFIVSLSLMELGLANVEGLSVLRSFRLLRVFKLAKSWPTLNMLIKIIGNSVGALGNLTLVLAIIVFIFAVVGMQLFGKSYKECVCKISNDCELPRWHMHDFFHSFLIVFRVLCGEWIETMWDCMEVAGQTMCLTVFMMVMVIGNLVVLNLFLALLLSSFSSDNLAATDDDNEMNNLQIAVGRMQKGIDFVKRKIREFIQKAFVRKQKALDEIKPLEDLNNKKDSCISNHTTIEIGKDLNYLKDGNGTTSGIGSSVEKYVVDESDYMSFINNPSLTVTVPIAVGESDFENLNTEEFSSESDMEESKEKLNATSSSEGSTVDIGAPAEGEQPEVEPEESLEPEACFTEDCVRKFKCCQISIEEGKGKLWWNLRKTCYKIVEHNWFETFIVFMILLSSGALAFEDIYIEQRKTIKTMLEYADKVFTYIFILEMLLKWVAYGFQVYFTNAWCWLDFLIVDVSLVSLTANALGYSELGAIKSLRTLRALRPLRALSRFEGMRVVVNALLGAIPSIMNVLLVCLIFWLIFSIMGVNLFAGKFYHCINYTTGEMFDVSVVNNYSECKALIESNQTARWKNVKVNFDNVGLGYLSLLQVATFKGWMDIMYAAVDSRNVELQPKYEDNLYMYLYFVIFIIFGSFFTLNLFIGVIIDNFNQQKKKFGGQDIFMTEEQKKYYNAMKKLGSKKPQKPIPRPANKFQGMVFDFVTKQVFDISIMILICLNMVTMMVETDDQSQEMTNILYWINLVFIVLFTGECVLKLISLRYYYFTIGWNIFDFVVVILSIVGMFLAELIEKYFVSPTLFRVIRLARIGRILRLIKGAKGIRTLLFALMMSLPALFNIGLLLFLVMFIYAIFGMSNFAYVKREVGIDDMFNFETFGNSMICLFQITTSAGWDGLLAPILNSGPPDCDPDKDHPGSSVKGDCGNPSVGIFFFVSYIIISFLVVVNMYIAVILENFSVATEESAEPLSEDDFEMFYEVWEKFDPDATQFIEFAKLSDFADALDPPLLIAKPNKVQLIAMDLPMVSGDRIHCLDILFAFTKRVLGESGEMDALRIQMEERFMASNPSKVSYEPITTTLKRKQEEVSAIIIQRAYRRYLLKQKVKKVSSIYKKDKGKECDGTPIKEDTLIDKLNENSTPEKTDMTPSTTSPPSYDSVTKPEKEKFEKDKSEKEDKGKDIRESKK

[1] = biological target: T1, hERG potassium ion channel (Homo sapiens, UniProt Q12809); experiment: Effect on the hERG potassium ion channel (CHO hERG cells, manual patch clamp); type: cell-based
T1 construct: host or cells: CHO (CHO hERG, passage P15)
T1 sequence (Q12809 whole entry): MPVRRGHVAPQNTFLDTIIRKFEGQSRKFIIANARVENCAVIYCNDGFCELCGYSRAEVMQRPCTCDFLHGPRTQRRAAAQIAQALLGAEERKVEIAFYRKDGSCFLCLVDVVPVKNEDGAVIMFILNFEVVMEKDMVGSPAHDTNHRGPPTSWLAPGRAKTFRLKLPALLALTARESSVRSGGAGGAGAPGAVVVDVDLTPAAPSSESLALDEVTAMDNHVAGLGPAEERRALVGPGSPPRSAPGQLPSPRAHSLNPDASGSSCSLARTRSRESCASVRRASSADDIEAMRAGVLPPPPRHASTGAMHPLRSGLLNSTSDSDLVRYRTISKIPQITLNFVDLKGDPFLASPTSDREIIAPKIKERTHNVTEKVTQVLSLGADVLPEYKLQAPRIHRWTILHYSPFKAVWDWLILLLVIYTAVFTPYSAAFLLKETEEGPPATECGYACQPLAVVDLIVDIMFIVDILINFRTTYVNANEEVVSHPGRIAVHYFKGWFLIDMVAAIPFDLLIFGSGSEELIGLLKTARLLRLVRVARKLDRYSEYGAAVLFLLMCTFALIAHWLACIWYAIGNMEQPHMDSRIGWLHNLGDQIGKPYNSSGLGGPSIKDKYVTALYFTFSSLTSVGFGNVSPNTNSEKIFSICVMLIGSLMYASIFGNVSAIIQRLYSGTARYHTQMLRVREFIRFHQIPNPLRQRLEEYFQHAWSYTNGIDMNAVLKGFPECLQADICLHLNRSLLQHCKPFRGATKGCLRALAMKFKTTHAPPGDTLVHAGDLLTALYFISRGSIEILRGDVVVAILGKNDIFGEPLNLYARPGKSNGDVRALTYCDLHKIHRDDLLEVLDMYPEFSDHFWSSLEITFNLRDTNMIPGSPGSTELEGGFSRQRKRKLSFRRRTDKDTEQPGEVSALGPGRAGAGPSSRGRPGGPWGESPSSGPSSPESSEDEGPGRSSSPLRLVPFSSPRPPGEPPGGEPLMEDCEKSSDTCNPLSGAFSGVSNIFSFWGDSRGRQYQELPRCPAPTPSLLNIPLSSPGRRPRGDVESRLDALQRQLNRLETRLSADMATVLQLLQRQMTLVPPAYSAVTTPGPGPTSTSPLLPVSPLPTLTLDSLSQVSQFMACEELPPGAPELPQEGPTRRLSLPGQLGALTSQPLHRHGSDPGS
Description: 2.1.1 Cells used in this experiment are CHO cell lines (supplied by Sophion Bioscience, Denmark) which are hERG cDNA transfectant and stably express hERG channels, cell progeny is P15. Cells are cultured in medium containing the following ingredients Invitrogen): Ham's F12 medium, 10% (v/v) inactivated fetal bovine serum, […] hygromycin B, […] Geneticin.
2.1.2 CHO hERG cells were grown in Petri dishes containing the above medium and cultured in an incubator containing 5% CO2 at 37° C. CHO hERG cells were transferred onto round glass plates in Petri dishes, and grown on the same culture medium and culture conditions as above 24 h to 48 h prior to the electrophysiological experiments, and the density of CHO hERG cells on each round glass plate needs to meet the requirements that the vast majority of cells are independent and individual.
The following solutions (supplied by Sophion) were used for electrophysiological recording. The reagents used in this test were provided by Sigma.
In this experiment, whole-cell current recording was performed using a manual patch clamp system (HEKA EPC-10 signal amplification and digital conversion system, purchased from HEKA Electronic, Germany). The round glass slide of which surface CHO hERG cells were grown on was placed in an electrophysiological recording slot under an inverted microscope. Perfused steadily with extracellular fluid in recording slot (approximately 1 ml per minute). A conventional whole-cell patch clamp current recording technique was used in the experiment. Unless otherwise specified, experiments were performed at normal room temperature (about 25° C.). Cell clamping was at −80 mV. […] The hERG potassium current recorded in the above steps could be superfused for test drug after the steady perfusion state of the extracellular fluid in the recording slot had been stabilized until the inhibition of the hERG current by the drug reached a steady state. […]
The test data were analyzed by the data analysis software provided by HEKA Patchmaster (V2x73.2), Microsoft Excel and Graphpad Prism 5.0.

Cc1cc(N2CCN(Cc3cc(F)c(C(=O)NS(=O)(=O)C4CC4)cc3Cl)CC2)ccc1Cl [the free base of formula X compound, 5-chloro-4-((4-(4-chloro-3-methylphenyl)piperazin-1-yl)methyl)-N-(cyclopropylsulfonyl)-2-fluorobenzamide]
Solubility (mg/mL) 0.1M HCl (Solubility experiment; 0.1M HCl, room temperature): 0.065 mg/mL | Solubility (mg/mL) pH4.5 (Solubility experiment; buffer pH 4.5, room temperature): 0.001 mg/mL | Solubility (mg/mL) pH6.8 (Solubility experiment; buffer pH 6.8, room temperature): 0.021 mg/mL | Solubility (mg/mL) H2O (Solubility experiment; water, room temperature): 0.027 mg/mL | IC50 (Nav1.8): 18900 nM | IC50 (Nav1.2): 9600 nM | inhibitory activity on the hERG potassium ion channel [1]: little inhibitory activity | IC50 ([1]; read-out: hERG inhibitory concentration IC50): > 10000 nM | IC50 ([1]; read-out: hERG potassium ion channel (IC50/nM)): > 10000 nM
